# Data published in PMC12197210, “mPEG-PCL Nanoparticles to Improve Oral Bioavailability of Acalabrutinib: Effect of Polymer Lipophilicity and Hydrophilicity on Physicochemical Properties and In Vivo Performance in Rats” (Pharmaceutics, 2025).
# Read-outs that look alike come from different tables or passages of the source.
# How the values were obtained:
# [1] = test system: P-glycoprotein (P-gp) efflux transporter; parameters: method as in earlier work; details: cited from earlier work
# [2] = parameters: method as in earlier work; details: cited from earlier work
# [3] = In vitro dissolution/drug release, USP Type II apparatus, membrane-less method; type: physicochemical
# Method: A membrane-less method using a USP Type II dissolution apparatus (Manual operating model with 8 stations, Electrolab (India) Pvt. Ltd., Mumbai, India) was employed to evaluate the dissolution and drug release behavior of both bulk ACP and freeze-dried ACP-PLHNs (both types, equivalent to 100 mg free base) under physiological pH conditions. The gastrointestinal pH was simulated with three different buffer solutions: a 0.1 N HCl buffer (pH 1.2 ± 0.02, volume = 250 mL) representing the fasted stomach; an acetate buffer (pH 4.5 ± 0.02, volume = 250 mL) representing the fed stomach; and a phosphate buffer solution (PBS, pH 6.8 ± 0.02, volume = 900 mL) representing the intestinal environment. To simulate blood/plasma conditions, 500 mL of PBS (pH 7.2 ± 0.02) was used. To maintain sink conditions, 0.5% w/v sodium dodecyl sulfate (SDS) was added to media with pH ≥ 4.5, and the volume of medium was kept at 3× the volume required to maintain the saturation solubility of ACP. The formulations were dispersed in the dissolution media, which was continuously stirred at 75 rpm and maintained at 37 ± 2 °C. Samples (1000 μL) were withdrawn at specific time intervals and replaced with an equal volume of fresh media (pre-heated to 37 ± 2 °C). The samples were then centrifuged at 15,373× g for 5 min, and the supernatant was collected, diluted with the mobile phase (methanol and a 10 mM ammonium acetate buffer, pH 3.5, in a 52:48 v/v ratio), and analyzed using the HPLC-UV method outlined in Section 2.3.3. The dissolution data were fitted to different mathematical models to determine the drug release kinetics. The best-fitting model was identified based on the regression coefficient.
# CYP3A enzyme system = test system: CYP3A enzyme system; parameters: method as in earlier work; details: cited from earlier work
# [4] = cited from earlier work
structure (smiles),measurement,setting,value
"CC#CC(=O)N1CCC[C@H]1c1nc(-c2ccc(C(=O)Nc3ccccn3)cc2)c2c(N)nccn12 [ACP, Acalabrutinib]",P-gp efflux transporter substrate status,[1],substrate
same,oral bioavailability,[2],25 ± 11%
same,time to complete dissolution,"[3]; pH 1.2, sink conditions",≤ 30 min
same,time to complete dissolution,"[3]; pH 4.5, sink conditions",≤ 30 min
same,time of complete (100%) release/dissolution,"[3]; pH 6.8, sink conditions",≤ 2 h
same,time of complete (100%) release/dissolution,"[3]; pH 7.2, sink conditions",≤ 4 h
same,metabolism by CYP3A,CYP3A enzyme system,metabolized by the CYP3A enzyme system
same,aqueous solubility,[4]; pH 1,29.2 mg/mL
same,aqueous solubility,[4]; pH 4.5,0.159 mg/mL
same,aqueous solubility,[4]; pH 6.8,0.0523 mg/mL
same,solubility,[4]; pH values above 6,practically insoluble
